Test results reported in PubChem BioAssay AID2060889 (Molecular Pharmacology Branch, DTP, NCI, 2025).
pIC50: −log10 of the molar value.

Test system: LG0567-F671-PDC complex spheroids viability
Experiment: Anticancer human tumor LG0567-F671-PDC patient-derived lung adenocarcinoma cell line growth inhibition [RAS]
Settings: for pIC50: curve of first compound; for viability, T/C: stronger effect = lower value
In short: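 Tumour cells grown as complex spheroids with HUVEC endothelial cells and mesenchymal stem cells, treated with RAS pathway inhibitor combinations. Each agent spans half-log steps from near clinical Cmax, or 10 microM where Cmax is unknown.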

[1] = second compound 0.00316 µM, first compound 0.000949 µM
[2] = second compound 0.00316 µM, first compound 0.003 µM
[3] = second compound 0.00316 µM, first compound 0.00949 µM
[4] = second compound 0.00316 µM, first compound 0.03 µM
[5] = second compound 0.00316 µM, first compound 0.0949 µM
[6] = second compound 0.00316 µM, first compound 0.3 µM
[7] = second compound 0.01 µM, first compound 0.000949 µM
[8] = second compound 0.01 µM, first compound 0.003 µM
[9] = second compound 0.01 µM, first compound 0.00949 µM
[10] = second compound 0.01 µM, first compound 0.03 µM
[11] = second compound 0.01 µM, first compound 0.0949 µM
[12] = second compound 0.01 µM, first compound 0.3 µM
[13] = second compound 0.0316 µM, first compound 0.000949 µM
[14] = second compound 0.0316 µM, first compound 0.003 µM
[15] = second compound 0.0316 µM, first compound 0.00949 µM
[16] = second compound 0.0316 µM, first compound 0.03 µM
[17] = second compound 0.0316 µM, first compound 0.0949 µM
[18] = second compound 0.0316 µM, first compound 0.3 µM
[19] = second compound 0.1 µM, first compound 0.000949 µM
[20] = second compound 0.1 µM, first compound 0.003 µM
[21] = second compound 0.1 µM, first compound 0.00949 µM
[22] = second compound 0.1 µM, first compound 0.03 µM
[23] = second compound 0.1 µM, first compound 0.0949 µM
[24] = second compound 0.1 µM, first compound 0.3 µM
[25] = second compound 0.316 µM, first compound 0.000949 µM
[26] = second compound 0.316 µM, first compound 0.003 µM
[27] = second compound 0.316 µM, first compound 0.00949 µM
[28] = second compound 0.316 µM, first compound 0.03 µM
[29] = second compound 0.316 µM, first compound 0.0949 µM
[30] = second compound 0.316 µM, first compound 0.3 µM
[31] = second compound 1 µM, first compound 0.000949 µM
[32] = second compound 1 µM, first compound 0.003 µM
[33] = second compound 1 µM, first compound 0.00949 µM
[34] = second compound 1 µM, first compound 0.03 µM
[35] = second compound 1 µM, first compound 0.0949 µM
[36] = second compound 1 µM, first compound 0.3 µM
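Further: spheroids exposed to compound for seven days before readout.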
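Wherever pIC50 is given: luminescence signal used as a proxy for viable cells.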

SMILES: CC(=O)OC12COC1CC(O)C1(C)C(=O)C(O)C3=C(C)C(OC(=O)C(O)C(NC(=O)OC(C)(C)C)c4ccccc4)CC(O)(C(OC(=O)c4ccccc4)C21)C3(C)C (stereo unspecified) + C=CC(=O)N1CCN(c2nc(OCC3CCCN3C)nc3c(F)c(-c4nc(N)cc(C)c4C(F)(F)F)c(Cl)cc23)C(C)C1
- pIC50 (second compound 0.00316 µM): > 7.50
- pIC50 (second compound 0.01 µM): > 7.50
- pIC50 (second compound 0.0316 µM): > 7.50
- pIC50 (second compound 0.1 µM): > 7.50
- pIC50 (second compound 0.316 µM): > 7.50
- pIC50 (second compound 1 µM): > 7.50
- viability, T/C (second compound 0.00316 µM, first compound 0.0316 µM): 14%
- viability, T/C (second compound 0.00316 µM, first compound 0.1 µM): 12.6%
- viability, T/C (second compound 0.00316 µM, first compound 0.316 µM): 13.9%
- viability, T/C (second compound 0.00316 µM, first compound 1 µM): 14.3%
- viability, T/C (second compound 0.00316 µM, first compound 3.16 µM): 15.8%
- viability, T/C (second compound 0.00316 µM, first compound 10 µM): 12%
- viability, T/C (second compound 0.01 µM, first compound 0.0316 µM): 11.3%
- viability, T/C (second compound 0.01 µM, first compound 0.1 µM): 11.3%
- viability, T/C (second compound 0.01 µM, first compound 0.316 µM): 9.97%
- viability, T/C (second compound 0.01 µM, first compound 1 µM): 11.6%
- viability, T/C (second compound 0.01 µM, first compound 3.16 µM): 12.5%
- viability, T/C (second compound 0.01 µM, first compound 10 µM): 9.61%
- viability, T/C (second compound 0.0316 µM, first compound 0.0316 µM): 13.7%
- viability, T/C (second compound 0.0316 µM, first compound 0.1 µM): 11.6%
- viability, T/C (second compound 0.0316 µM, first compound 0.316 µM): 10.8%
- viability, T/C (second compound 0.0316 µM, first compound 1 µM): 11.4%
- viability, T/C (second compound 0.0316 µM, first compound 3.16 µM): 14.5%
- viability, T/C (second compound 0.0316 µM, first compound 10 µM): 9.14%
- viability, T/C (second compound 0.1 µM, first compound 0.0316 µM): 11.1%
- viability, T/C (second compound 0.1 µM, first compound 0.1 µM): 10.8%
- viability, T/C (second compound 0.1 µM, first compound 0.316 µM): 10.9%
- viability, T/C (second compound 0.1 µM, first compound 1 µM): 11.5%
- viability, T/C (second compound 0.1 µM, first compound 3.16 µM): 13.6%
- viability, T/C (second compound 0.1 µM, first compound 10 µM): 8.85%
- viability, T/C (second compound 0.316 µM, first compound 0.0316 µM): 11.9%
- viability, T/C (second compound 0.316 µM, first compound 0.1 µM): 10.7%
- viability, T/C (second compound 0.316 µM, first compound 0.316 µM): 11.5%
- viability, T/C (second compound 0.316 µM, first compound 1 µM): 12.2%
- viability, T/C (second compound 0.316 µM, first compound 3.16 µM): 14.7%
- viability, T/C (second compound 0.316 µM, first compound 10 µM): 9.3%
- viability, T/C (second compound 1 µM, first compound 0.0316 µM): 12.6%
- viability, T/C (second compound 1 µM, first compound 0.1 µM): 10.2%
- viability, T/C (second compound 1 µM, first compound 0.316 µM): 12.4%
- viability, T/C (second compound 1 µM, first compound 1 µM): 14.5%
- viability, T/C (second compound 1 µM, first compound 3.16 µM): 14.7%
- viability, T/C (second compound 1 µM, first compound 10 µM): 9.86%

SMILES: CC1(C)CCC(Nc2ncc(C(F)(F)F)c(-c3c[nH]c4c(P(C)(C)=O)c(C#N)ccc34)n2)CN1 (stereo unspecified) + C=CC(=O)N1CCN(c2nc(OCC3CCCN3C)nc3c(F)c(-c4nc(N)cc(C)c4C(F)(F)F)c(Cl)cc23)C(C)C1
- pIC50 (second compound 0.00316 µM): > 9.02
- pIC50 (second compound 0.01 µM): > 9.02
- pIC50 (second compound 0.0316 µM): > 9.02
- pIC50 (second compound 0.1 µM): > 9.02
- pIC50 (second compound 0.316 µM): > 9.02
- pIC50 (second compound 1 µM): > 9.02
- viability, T/C [1]: 12.2%
- viability, T/C [2]: 11.3%
- viability, T/C [3]: 11.2%
- viability, T/C [4]: 13.6%
- viability, T/C [5]: 12.2%
- viability, T/C [6]: 11.8%
- viability, T/C [7]: 11.9%
- viability, T/C [8]: 10.2%
- viability, T/C [9]: 10.1%
- viability, T/C [10]: 10.1%
- viability, T/C [11]: 13%
- viability, T/C [12]: 12.4%
- viability, T/C [13]: 9.75%
- viability, T/C [14]: 9.55%
- viability, T/C [15]: 10.2%
- viability, T/C [16]: 11.2%
- viability, T/C [17]: 10.7%
- viability, T/C [18]: 10.8%
- viability, T/C [19]: 10.9%
- viability, T/C [20]: 9.77%
- viability, T/C [21]: 10.7%
- viability, T/C [22]: 10.9%
- viability, T/C [23]: 11.5%
- viability, T/C [24]: 10.2%
- viability, T/C [25]: 10%
- viability, T/C [26]: 9.73%
- viability, T/C [27]: 10.6%
- viability, T/C [28]: 10.2%
- viability, T/C [29]: 12.2%
- viability, T/C [30]: 11.4%
- viability, T/C [31]: 10.2%
- viability, T/C [32]: 11%
- viability, T/C [33]: 10.4%
- viability, T/C [34]: 11.1%
- viability, T/C [35]: 12.4%
- viability, T/C [36]: 12.3%

SMILES: CCc1c2c(nc3ccc(O)cc13)-c1cc3c(c(=O)n1C2)COC(=O)[C@]3(O)CC + C=CC(=O)N1CCN(c2nc(OCC3CCCN3C)nc3c(F)c(-c4nc(N)cc(C)c4C(F)(F)F)c(Cl)cc23)C(C)C1
- pIC50 (second compound 0.00316 µM): > 9.02
- pIC50 (second compound 0.01 µM): > 9.02
- pIC50 (second compound 0.0316 µM): > 9.02
- pIC50 (second compound 0.1 µM): > 9.02
- pIC50 (second compound 0.316 µM): > 9.02
- pIC50 (second compound 1 µM): > 9.02
- viability, T/C [1]: 17.1%
- viability, T/C [2]: 14.7%
- viability, T/C [3]: 15%
- viability, T/C [4]: 12.2%
- viability, T/C [5]: 7.62%
- viability, T/C [6]: 4.2%
- viability, T/C [7]: 18%
- viability, T/C [8]: 13.9%
- viability, T/C [9]: 12.2%
- viability, T/C [10]: 10.3%
- viability, T/C [11]: 6.26%
- viability, T/C [12]: 3.82%
- viability, T/C [13]: 14.9%
- viability, T/C [14]: 11.9%
- viability, T/C [15]: 14%
- viability, T/C [16]: 8.57%
- viability, T/C [17]: 6.15%
- viability, T/C [18]: 3.69%
- viability, T/C [19]: 13.6%
- viability, T/C [20]: 12.4%
- viability, T/C [21]: 9.96%
- viability, T/C [22]: 9.55%
- viability, T/C [23]: 6.17%
- viability, T/C [24]: 2.99%
- viability, T/C [25]: 12.7%
- viability, T/C [26]: 12.2%
- viability, T/C [27]: 11.6%
- viability, T/C [28]: 9.06%
- viability, T/C [29]: 6.73%
- viability, T/C [30]: 3.59%
- viability, T/C [31]: 13.1%
- viability, T/C [32]: 13.5%
- viability, T/C [33]: 12.9%
- viability, T/C [34]: 9.98%
- viability, T/C [35]: 8.33%
- viability, T/C [36]: 4.38%
